Columns and labels:
[1] = cited from earlier work
[2] = concentrations higher than 30%; cited from earlier work
[3] = previous attempts, literature; cited from earlier work
[4] = Ex vivo dissolution of solid WON debris by candidate debridement compounds; set-up: species or system human
Procedure: To perform preliminary proof-of-concept testing, solid WON debris was collected from seven patients undergoing endoscopic necrosectomy. […] Several candidate compounds that might be suitable, alone or in combination, for WON debris dissolution were identified. The candidate debridement compounds were tested on ex vivo samples to assess their capacity for dissolving WON debris.

Compound: [O][Cl+][O-] [Chlorine dioxide, reference compound]
- Effect compared to 5.8% NaOCl ([1]; chlorine dioxide 13.8%): shown to be similar

Compound: OO [Hydrogen peroxide, reference compound]
- Toxicity (local damage) [2]: shown to be toxic
- Success as chemical dissolution agent to aid endoscopic necrosectomy [3]: minimal success

Compound: OCl [NaOCl, Sodium hypochlorite]
- Solvent properties in WON samples ([4]; ex vivo, concentration of 5% (FIG. 4)): excellent solvent properties
- Time to breakdown of human pancreas necrosis debris ([4]; petri dish, dilute sodium hypochlorite 2.5% (FIG. 4)): within minutes
- Pulp dissolution ([1]; 8.25% NaOCl, dental surgery studies (Cullen et al., 2015)): rapid pulp dissolution

Compound: CC(C)=O [acetone, reference compound]
- Effect on WON debris (dissolution) ([4]; ex vivo samples from patients undergoing endoscopic necrosectomy, lipophilic solvent): minimal to no effect

Compound: streptokinase: previously tried chemical dissolution agent to aid endoscopic necrosectomy
- Success as chemical dissolution agent to aid endoscopic necrosectomy [3]: minimal success

Compound: tissue plasminogen activator: previously tried chemical dissolution agent to aid endoscopic necrosectomy
- Success as chemical dissolution agent to aid endoscopic necrosectomy [3]: minimal success

From patent publication US20250143933A1, “ENDOSCOPIC, PERCUTANEOUS AND OTHER METHODS FOR DISSOLUTION OF PANCREATIC NECROSIS” (The Johns Hopkins University, priority 2021, published 2025)
